Experimental data taken from article PMC10892120, “Design, Synthesis and Biological Assessment of N′-(2-Oxoindolin-3-ylidene)-6-methylimidazo[2,1-b]thiazole-5-carbohydrazides as Potential Anti-Proliferative Agents toward MCF-7 Breast Cancer” (Pharmaceuticals, 2024).

Experiments:
Bax = assay: RT-PCR gene expression in treated MCF-7 cells: Bax; format: cell-based; details: treated MCF-7 cells vs untreated control MCF-7 (=1)
Description: (§1) The gene expression levels of apoptosis genes in MCF-7 cells were measured using RT-PCR to validate the apoptosis-inducing behaviors of the potent lead compound 6i in MCF-7 cells.
(§2) The gene expression levels of apoptosis genes were evaluated in MCF-7 cells using the following approaches in the Supplementary Data, page 43.
(§3) Inhibitor solution of each well labeled as “Test Inhibitor”. For the “Positive Control" and “Blank”, add 5 μl of the same solution without inhibitor (Inhibitor buffer). Prepare 3 ml of 1x Kinase Buffer 1 by mixing 600 μl of 5x Kinase Buffer 1 with 2400 μl water. 3 ml of 1x Kinase Buffer 1 is sufficient for 100 reactions. To the wells designated as "Blank", add 20 μl of 1x Kinase Buffer 1.
(§4) Thaw VEGFR2 enzyme on ice. Upon first thaw, briefly spin tube containing enzyme to recover full content of the tube. Calculate the amount of VEGFR2 required for the assay and dilute enzyme to 1 ng/μl with 1x Kinase Buffer 1. Store remaining undiluted enzyme in aliquots at -80°C. Note:
(§5) VEGFR2 enzyme is sensitive to freeze/thaw cycles. Avoid multiple freeze/thaw cycles. […]
(§6) use thawed aliquots or diluted enzyme. […]
(§7) thoroughly, and then centrifuge at 4°C to collect contents to the bottom of the tube. […] Preparation of a reaction cocktail is crucial in quantitative PCR applications to reduce pipetting errors and maximize assay precision and accuracy. […]

VEGFR-2 = VEGFR-2 (Homo sapiens, UniProt P35968); assay: In vitro VEGFR-2 kinase inhibition assay; format: biochemical; details: mean ± SD of three experiments
MCF-7 breast cell line = assay: MTT assay, anti-proliferative activity toward MCF-7; format: cell-based; details: Homo sapiens, MCF7
Description: . The developed compounds were evaluated in vitro using the MTT cell viability assay following the published techniques (Supplementary Data, page 42). […]
(§8) The 96 well tissue culture plate was seeded with 1 X 10^5 cells / ml (100 ul / well) and cultured at 37 degrees Celsius for 24 hours to form a full monolayer sheet. After forming a confluent sheet of cells, growth medium was decanted from 96 well micro titer plates, the cell monolayer was washed twice with wash media, and two-fold dilutions of the tested sample were prepared in RPMI medium with 2% serum (maintenance medium). In each well, 0.1 ml of each dilution was examined, with three wells serving as controls and receiving only maintenance media.
(§9) The plate was incubated at 37 degrees Celsius and then analyzed. Cells were examined for any physical evidence of toxicity, such as partial or total monolayer loss, rounding, shrinkage, or cell granulation. MTT solution (5mg/ml in PBS) was prepared (BIO BASIC CANADA INC), and 20ul MTT solution was added to each well. Shake the MTT into the medium for 5 minutes at 150rpm on a shaking table. Incubate for 4 hours (37°C, 5% CO2) to allow the MTT to be digested. Remove the media. (If required, dry plate on paper towels to remove residue. In 200ul DMSO, resuspend formazan (MTT metabolic product). Shake at 150rpm for 5 minutes to properly mix the formazan into the solvent. At 560nm, measure optical density and subtract background at 620nm. The optical density should be proportional to the number of cells. MCF-7 and MCF-10A cell lines were provided with 10% fetal bovine serum (FBS, Sigma-Aldrich, MO, USA). Data are presented as the mean of the IC50 values ± SD from three different experiments. […]

MCF-10A = assay: MTT assay, cytotoxicity toward MCF-10A; format: cell-based; details: Homo sapiens
Description: The developed compounds were evaluated in vitro using the MTT cell viability assay following the published techniques (Supplementary Data, page 42). […]
as §8, §9

Caspase-8 = assay: RT-PCR gene expression in treated MCF-7 cells: caspase 8; format: cell-based; details: treated MCF-7 cells vs untreated control MCF-7 (=1)
Description: as §1, §2, §3, §4, §5, §6, §7

Cytochrome C = assay: RT-PCR gene expression in treated MCF-7 cells: cytochrome C; format: cell-based; details: treated MCF-7 cells vs untreated control MCF-7 (=1)
Description: as §1, §2, §3, §4, §5, §6, §7

Bcl-2 = assay: RT-PCR gene expression in treated MCF-7 cells: Bcl-2; format: cell-based; details: treated MCF-7 cells vs untreated control MCF-7 (=1)
Description: as §1, §2, §3, §4, §5, §6, §7

Sequence of VEGFR-2 (P35968 20-1356): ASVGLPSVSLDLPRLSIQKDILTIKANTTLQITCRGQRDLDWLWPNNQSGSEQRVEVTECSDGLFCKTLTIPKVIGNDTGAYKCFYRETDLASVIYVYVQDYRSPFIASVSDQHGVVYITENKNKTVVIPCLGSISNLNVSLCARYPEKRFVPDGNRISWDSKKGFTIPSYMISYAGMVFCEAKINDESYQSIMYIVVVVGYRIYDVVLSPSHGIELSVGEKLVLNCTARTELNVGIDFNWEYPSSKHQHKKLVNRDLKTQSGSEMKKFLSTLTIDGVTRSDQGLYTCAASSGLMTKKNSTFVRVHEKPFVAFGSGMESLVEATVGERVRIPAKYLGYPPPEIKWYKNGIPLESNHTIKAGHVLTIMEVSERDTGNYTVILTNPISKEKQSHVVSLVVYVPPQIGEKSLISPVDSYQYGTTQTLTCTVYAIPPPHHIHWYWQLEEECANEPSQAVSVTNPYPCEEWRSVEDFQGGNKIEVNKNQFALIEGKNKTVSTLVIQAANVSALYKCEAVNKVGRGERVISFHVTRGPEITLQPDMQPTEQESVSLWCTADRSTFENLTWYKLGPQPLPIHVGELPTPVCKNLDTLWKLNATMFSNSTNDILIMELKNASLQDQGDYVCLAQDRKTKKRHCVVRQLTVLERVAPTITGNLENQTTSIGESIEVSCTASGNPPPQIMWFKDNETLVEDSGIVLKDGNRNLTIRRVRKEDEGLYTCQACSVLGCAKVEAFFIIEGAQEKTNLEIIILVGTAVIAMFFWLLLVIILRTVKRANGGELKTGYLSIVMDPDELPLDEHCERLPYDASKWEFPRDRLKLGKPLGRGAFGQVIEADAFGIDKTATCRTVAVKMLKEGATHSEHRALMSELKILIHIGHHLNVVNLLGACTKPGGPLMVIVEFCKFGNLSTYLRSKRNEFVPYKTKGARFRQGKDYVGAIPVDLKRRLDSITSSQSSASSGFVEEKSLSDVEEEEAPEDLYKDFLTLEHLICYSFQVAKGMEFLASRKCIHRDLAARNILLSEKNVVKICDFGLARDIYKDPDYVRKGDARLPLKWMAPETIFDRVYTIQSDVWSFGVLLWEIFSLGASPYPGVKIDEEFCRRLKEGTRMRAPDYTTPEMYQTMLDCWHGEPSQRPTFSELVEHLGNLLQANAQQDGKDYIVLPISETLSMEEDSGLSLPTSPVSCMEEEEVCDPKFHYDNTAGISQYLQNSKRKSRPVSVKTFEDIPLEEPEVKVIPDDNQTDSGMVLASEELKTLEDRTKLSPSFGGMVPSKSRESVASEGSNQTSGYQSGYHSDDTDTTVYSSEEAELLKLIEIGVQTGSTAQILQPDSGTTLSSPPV

## CCCCN1C(=O)C(=NNC(=O)c2c(C)nc3sccn23)c2ccccc21 [Compound 6i, N′-(1-Butyl-2-oxoindolin-3-ylidene)-6-methylimidazo[2,1-b]thiazole-5-carbohydrazide]
Bax
  RT-PCR Fold Change Bax: 4.337 fold
VEGFR-2
  IC50: 0.33 ± 0.01 µM
MCF-7 breast cell line
  IC50: 8.38 ± 0.62 µM
MCF-10A
  IC50: 54.6 ± 1.29 µM
Caspase-8
  RT-PCR Fold Change Caspase-8: 2.727 fold
Cytochrome C
  RT-PCR Fold Change Cytochrome C: 2.420 fold
Bcl-2
  RT-PCR Fold Change Bcl-2: 0.359 fold
